In PubChem BioAssay (NCI):
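A five-concentration, 48-hour dose response in 96-well plates underlies each endpoint, interpolated linearly between surrounding concentrations. TGI is the concentration that stops growth completely.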

Experiments:
Assay in all cases: NCI anticancer screen, dose series, 48 h
SK-MEL-5 melanoma = test system: SK-MEL-5 melanoma
HOP-62 NSCLC = test system: HOP-62 NSCLC
HCT-15 colon = test system: HCT-15 colon
DU-145 prostate = test system: DU-145 prostate
MDA-N = test system: MDA-N
HCT-116 colon = test system: HCT-116 colon
SN12C renal = test system: SN12C renal
CAKI-1 renal = test system: CAKI-1 renal
A549 NSCLC = test system: A549 NSCLC
OVCAR-4 ovarian = test system: OVCAR-4 ovarian
SK-OV-3 ovarian = test system: SK-OV-3 ovarian
PC-3 prostate = test system: PC-3 prostate
UACC-62 melanoma = test system: UACC-62 melanoma
RPMI-8226 leukemia = test system: RPMI-8226 leukemia
IGROV1 ovarian = test system: IGROV1 ovarian
MALME-3M melanoma = test system: MALME-3M melanoma
SF-268 CNS = test system: SF-268 CNS
BT-549 breast = test system: BT-549 breast
HS 578T breast = test system: HS 578T breast
CCRF-CEM leukemia = test system: CCRF-CEM leukemia
U251 CNS = test system: U251 CNS
ACHN renal = test system: ACHN renal
NCI/ADR-RES ovarian = test system: NCI/ADR-RES ovarian
SF-295 CNS = test system: SF-295 CNS
SW-620 colon = test system: SW-620 colon
UACC-257 melanoma = test system: UACC-257 melanoma
TK-10 renal = test system: TK-10 renal
OVCAR-3 ovarian = test system: OVCAR-3 ovarian
COLO 205 colon = test system: COLO 205 colon
T-47D breast = test system: T-47D breast
RXF 393 renal = test system: RXF 393 renal
SK-MEL-2 melanoma = test system: SK-MEL-2 melanoma
HCC-2998 colon = test system: HCC-2998 colon
NCI-H226 lung = test system: NCI-H226 lung
EKVX NSCLC = test system: EKVX NSCLC
MDA-MB-435 = test system: MDA-MB-435
A498 renal = test system: A498 renal
SNB-75 CNS = test system: SNB-75 CNS
SNB-19 CNS = test system: SNB-19 CNS
UO-31 renal = test system: UO-31 renal
SF-539 CNS = test system: SF-539 CNS
OVCAR-5 ovarian = test system: OVCAR-5 ovarian
HT29 colon = test system: HT29 colon
SK-MEL-28 melanoma = test system: SK-MEL-28 melanoma
MCF7 breast = test system: MCF7 breast
786-0 renal = test system: 786-0 renal
OVCAR-8 ovarian = test system: OVCAR-8 ovarian
MOLT-4 leukemia = test system: MOLT-4 leukemia
M14 melanoma = test system: M14 melanoma
NCI-H23 lung = test system: NCI-H23 lung
HOP-92 NSCLC = test system: HOP-92 NSCLC
KM12 colon = test system: KM12 colon
NCI-H522 lung = test system: NCI-H522 lung
MDA-MB-231 breast = test system: MDA-MB-231 breast
NCI-H460 lung = test system: NCI-H460 lung
K-562 leukemia = test system: K-562 leukemia

`COc1ccc(-n2cnc3c(N)nc(N)nc32)cc1` showed a TGI (SK-MEL-5 melanoma) of over 100 µM, a TGI (HOP-62 NSCLC) of over 100 µM and a TGI (HCT-15 colon) of over 100 µM. For the same compound, the TGI (DU-145 prostate) was over 100 µM, the TGI (MDA-N) was over 100 µM and the TGI (HCT-116 colon) was over 100 µM. The TGI (SN12C renal) was over 100 µM, the TGI (CAKI-1 renal) was over 100 µM and the TGI (A549 NSCLC) was over 100 µM. The TGI (OVCAR-4 ovarian) was over 100 µM, the TGI (SK-OV-3 ovarian) was over 100 µM and the TGI (PC-3 prostate) was over 100 µM. The TGI (UACC-62 melanoma) was over 100 µM, the TGI (RPMI-8226 leukemia) was over 100 µM and the TGI (IGROV1 ovarian) was over 100 µM. For the same compound, the TGI (MALME-3M melanoma) was over 100 µM, the TGI (SF-268 CNS) was over 100 µM and the TGI (BT-549 breast) was over 100 µM. For the same compound, the TGI (HS 578T breast) was 87 µM, the TGI (CCRF-CEM leukemia) was over 100 µM and the TGI (U251 CNS) was over 100 µM. For the same compound, the TGI (ACHN renal) was over 100 µM, the TGI (NCI/ADR-RES ovarian) was over 100 µM and the TGI (SF-295 CNS) was over 100 µM. The TGI (SW-620 colon) was over 100 µM, the TGI (UACC-257 melanoma) was over 100 µM and the TGI (TK-10 renal) was over 100 µM. It also gave a TGI (OVCAR-3 ovarian) of over 100 µM, a TGI (COLO 205 colon) of over 100 µM and a TGI (T-47D breast) of over 100 µM. For the same compound, the TGI (RXF 393 renal) was over 100 µM, the TGI (SK-MEL-2 melanoma) was over 100 µM and the TGI (HCC-2998 colon) was over 100 µM. The TGI (NCI-H226 lung) was over 100 µM, the TGI (EKVX NSCLC) was over 100 µM and the TGI (MDA-MB-435) was over 100 µM. It also gave a TGI (A498 renal) of over 100 µM, a TGI (SNB-75 CNS) of 77.9 µM and a TGI (SNB-19 CNS) of over 100 µM. It also gave a TGI (UO-31 renal) of over 100 µM, a TGI (SF-539 CNS) of over 100 µM and a TGI (OVCAR-5 ovarian) of over 100 µM. The TGI (HT29 colon) was over 100 µM, the TGI (SK-MEL-28 melanoma) was over 100 µM and the TGI (MCF7 breast) was over 100 µM. It also gave a TGI (786-0 renal) of over 100 µM, a TGI (OVCAR-8 ovarian) of over 100 µM and a TGI (MOLT-4 leukemia) of over 100 µM. It also gave a TGI (M14 melanoma) of over 100 µM, a TGI (NCI-H23 lung) of over 100 µM and a TGI (HOP-92 NSCLC) of over 100 µM. The TGI (KM12 colon) was over 100 µM, the TGI (NCI-H522 lung) was over 100 µM and the TGI (MDA-MB-231 breast) was over 100 µM.

For `C[C@@H]1OC(=O)C[C@H]2CC(=O)N(CCC3CN(C(=O)c4ccccc4)c4ccccc43)C[C@@H]21` (some centres not stated), the TGI (SK-MEL-5 melanoma) was over 100 µM, the TGI (HOP-62 NSCLC) was over 100 µM and the TGI (HCT-15 colon) was over 100 µM. It also gave a TGI (DU-145 prostate) of over 100 µM, a TGI (MDA-N) of over 100 µM and a TGI (HCT-116 colon) of over 100 µM. For the same compound, the TGI (CAKI-1 renal) was over 100 µM, the TGI (A549 NSCLC) was over 100 µM and the TGI (OVCAR-4 ovarian) was over 100 µM. For the same compound, the TGI (SK-OV-3 ovarian) was over 100 µM, the TGI (PC-3 prostate) was over 100 µM and the TGI (UACC-62 melanoma) was over 100 µM. It also gave a TGI (RPMI-8226 leukemia) of over 100 µM, a TGI (IGROV1 ovarian) of over 100 µM and a TGI (MALME-3M melanoma) of over 100 µM. For the same compound, the TGI (SF-268 CNS) was over 100 µM, the TGI (BT-549 breast) was over 100 µM and the TGI (HS 578T breast) was over 100 µM. The TGI (U251 CNS) was over 100 µM, the TGI (NCI-H460 lung) was over 100 µM and the TGI (ACHN renal) was over 100 µM. The TGI (NCI/ADR-RES ovarian) was over 100 µM, the TGI (SF-295 CNS) was over 100 µM and the TGI (K-562 leukemia) was over 100 µM. It also gave a TGI (SW-620 colon) of over 100 µM, a TGI (UACC-257 melanoma) of over 100 µM and a TGI (TK-10 renal) of over 100 µM. The TGI (OVCAR-3 ovarian) was over 100 µM, the TGI (COLO 205 colon) was over 100 µM and the TGI (T-47D breast) was over 100 µM. It also gave a TGI (RXF 393 renal) of over 100 µM, a TGI (SK-MEL-2 melanoma) of over 100 µM and a TGI (HCC-2998 colon) of over 100 µM. For the same compound, the TGI (EKVX NSCLC) was over 100 µM, the TGI (MDA-MB-435) was over 100 µM and the TGI (A498 renal) was over 100 µM. The TGI (SNB-75 CNS) was over 100 µM, the TGI (SNB-19 CNS) was over 100 µM and the TGI (UO-31 renal) was over 100 µM. The TGI (OVCAR-5 ovarian) was over 100 µM, the TGI (HT29 colon) was over 100 µM and the TGI (SK-MEL-28 melanoma) was over 100 µM. For the same compound, the TGI (MCF7 breast) was over 100 µM, the TGI (786-0 renal) was over 100 µM and the TGI (OVCAR-8 ovarian) was over 100 µM. The TGI (MOLT-4 leukemia) was over 100 µM, the TGI (M14 melanoma) was over 100 µM and the TGI (NCI-H23 lung) was over 100 µM. It also gave a TGI (HOP-92 NSCLC) of over 100 µM, a TGI (KM12 colon) of over 100 µM and a TGI (NCI-H522 lung) of over 100 µM. The TGI (MDA-MB-231 breast) was over 100 µM.

`Cc1n[nH]c(=O)n1/N=C/c1cccc(Cl)c1` was tested, and the TGI (HOP-62 NSCLC) was over 100 µM, the TGI (HCT-15 colon) was over 100 µM and the TGI (DU-145 prostate) was over 100 µM. The TGI (MDA-N) was over 100 µM, the TGI (HCT-116 colon) was over 100 µM and the TGI (SN12C renal) was over 100 µM. For the same compound, the TGI (CAKI-1 renal) was over 100 µM, the TGI (A549 NSCLC) was over 100 µM and the TGI (OVCAR-4 ovarian) was over 100 µM. The TGI (SK-OV-3 ovarian) was over 100 µM, the TGI (PC-3 prostate) was over 100 µM and the TGI (UACC-62 melanoma) was over 100 µM. For the same compound, the TGI (RPMI-8226 leukemia) was over 100 µM, the TGI (MALME-3M melanoma) was over 100 µM and the TGI (SF-268 CNS) was over 100 µM. It also gave a TGI (BT-549 breast) of over 100 µM, a TGI (HS 578T breast) of 39.7 µM and a TGI (CCRF-CEM leukemia) of over 100 µM. It also gave a TGI (U251 CNS) of over 100 µM, a TGI (NCI-H460 lung) of over 100 µM and a TGI (ACHN renal) of over 100 µM. The TGI (NCI/ADR-RES ovarian) was over 100 µM, the TGI (SF-295 CNS) was over 100 µM and the TGI (K-562 leukemia) was over 100 µM. For the same compound, the TGI (SW-620 colon) was over 100 µM, the TGI (UACC-257 melanoma) was over 100 µM and the TGI (OVCAR-3 ovarian) was over 100 µM. The TGI (COLO 205 colon) was over 100 µM, the TGI (T-47D breast) was over 100 µM and the TGI (RXF 393 renal) was over 100 µM. It also gave a TGI (SK-MEL-2 melanoma) of over 100 µM, a TGI (HCC-2998 colon) of over 100 µM and a TGI (NCI-H226 lung) of over 100 µM. The TGI (EKVX NSCLC) was over 100 µM, the TGI (MDA-MB-435) was over 100 µM and the TGI (A498 renal) was over 100 µM. For the same compound, the TGI (SNB-75 CNS) was over 100 µM, the TGI (SNB-19 CNS) was over 100 µM and the TGI (UO-31 renal) was over 100 µM. For the same compound, the TGI (SF-539 CNS) was over 100 µM, the TGI (OVCAR-5 ovarian) was over 100 µM and the TGI (HT29 colon) was over 100 µM. The TGI (SK-MEL-28 melanoma) was over 100 µM, the TGI (MCF7 breast) was over 100 µM and the TGI (786-0 renal) was over 100 µM. The TGI (OVCAR-8 ovarian) was over 100 µM, the TGI (MOLT-4 leukemia) was over 100 µM and the TGI (M14 melanoma) was over 100 µM. For the same compound, the TGI (NCI-H23 lung) was over 100 µM, the TGI (KM12 colon) was over 100 µM and the TGI (MDA-MB-231 breast) was over 100 µM.
